Patent publication US9457033B2, “Steroid alkaloids and uses thereof as antimicrobial agents against electron transport-deficient microbes and as potentiators for antimicrobial agents against pathogenic bacteria” (priority 2011, dated 2016)

Columns and labels:
[1] = system: S. aureus ATCC 29213 alone; assay: Viability in mono-culture, CAMHB; assay type: cell-based, Staphylococcus aureus; conditions: SA alone + TO at 8 μg/ml
From the text: Bacteria were sampled, serially diluted and plated on tryptic soy agar for CFU determinations. […] Mannitol-salt agar plates were used to selectively evaluate S. aureus CFU when in co-culture with P. aeruginosa.

S. aureus SCV CF6A-S = assay: microbe, parasite or virus in culture; assay type: cell-based; conditions: Staphylococcus aureus, SCVCF6AS; Tomatidine (50 μg); thymidine auxotrophy; 24 hours at 37° C. with O2; DMSO control 0; read-out: Diameter of inhibition zone
SCV strain CF07-S = assay: Time-kill experiment (FIG. 1C); assay type: cell-based, Staphylococcus aureus; conditions: tomatidine at 0.25 μg/ml (2×MIC)
Procedure: (225 RPM), bacteria were sampled, serially diluted and plated on tryptic soy agar (TSA) for colony-forming unit (CFU) determinations (i.e., viable bacterial counts). Plates were incubated for 24 or 48 h at 35° C. for normal and SCV strains, respectively. The antibacterial activities of tomatidine and control antibiotics (erythromycin (a bacteriostatic macrolide) and ciprofloxacin (a bactericidal fluoroquinolone) against the normal CF07-L strain and the SCV CF07-S as a function of time are presented in FIGS. 1B and 1C, respectively. The antibacterial activity of tomatine against the SCV strain was also evaluated (TN in FIG. 1C).

With `C[C@H]1CC[C@]2(NC1)O[C@H]1C[C@H]3[C@@H]4CC[C@H]5C[C@@H](O)CC[C@]5(C)[C@H]4CC[C@]3(C)[C@H]1[C@@H]2C` [Tomatidine, tomatidine] the “Viability of S. aureus” value ([1]; 0 h) was 5.1 ± 0.4 Log10 CFU/ml, the “Viability of S. aureus” value ([1]; 24 h) was 9.64 ± 0.08 Log10 CFU/ml and the zone of inhibition at 50 µg/disc (S. aureus SCV CF6A-S) was 23 mm. For the same compound, the “time-kill effect on growth and viability” value (SCV strain CF07-S) was “induced bacteriostasis”.
